From patent US4520134A, “N-alkyl-4'-hydroxyacetanilides, pharmaceutical compositions comprising them and their use” (priority 1984, dated 1985)
Like-named read-outs stand apart in the source and are kept apart here.

Legend:
[1] = cited from earlier work; for protective effect against paracetamol: 300 mg/kg, 450 mg/kg paracetamol orally; for protection against acetaminophen toxicity: free radical scavengers; for effect on acetaminophen hepatotoxicity: Kelleher et al.
[2] = enhancement of acetaminophen hepatotoxicity (applicant's finding); conditions: in vivo
[3] = administered up to one hour after acute toxic amounts of acetaminophen; cited from earlier work
[4] = mouse, in vivo; cited from earlier work
[5] = administered within 16 hours after an overdose; cited from earlier work
[6] = hot plate test (Ankier), time to lick a back paw; type: in vivo, mice; conditions: 30 mg/kg i.p.; for average time before licking a back paw: 10 minutes after dose, plate 54° C., untreated control 44 seconds
Protocol: Two groups of mice, six mice per group, were used in the hot plate test described by S. I. Ankier European Journal of Pharmacology 27:1-4 (1974). The control group, which was untreated, at a plate temperature of 54° C. took an average of 44 seconds to lick a back paw. The test group received a dose of N-ethyl-4'-hydroxyacetanilide (30 mg/kg) administered intraperitoneally, and when placed on the hot plate at 54° C. 10 minutes later, shown an average time of 64 seconds before licking a back paw. The analgesic activity of this compound thus increased the pain-response time by almost 50 percent.
The analgesic properties of N-isopropylacetaminophen were tested using the hot plate test described by Ankier (Eur. J. Pharmacol. 27: 1-(1974)). Two groups of mice, 6 animals/group were used. The first group was placed on the hot plate, individually, and time need to lick the back paw was recorded and found to be 44 seconds (average) at 54° C. The second group of mice each received 30 mg/kg (i.p.) N-isopropylacetaminophen and after 10 minutes placed on the hot plate at 54° C. The time required to lick the rear paw was measured and found to be 64 seconds (average), thus increased response time by 50%.

[7] = 1894 paper; cited from earlier work
[8] = 1894 paper, without supporting data; cited from earlier work
[9] = toxicity of N-isopropylacetaminophen, histopathology of liver, kidney and lung; type: in vivo, mice; conditions: 100-400 mg/kg i.p.; 24 hours
Protocol: (§1) The toxicity of N-isopropylacetaminophen was evaluated by injecting mice with this compound at various doss from 100-400 mg/kg, i.p.) and 24 hours later, the animals were sacrificed and histopathology was determined for the liver, kidney and lung.

[10] = CNS sedation by N-isopropylacetaminophen; type: in vivo, mice
Protocol: as §1
The higher the dose, the longer the sedation. This was also found to be the case when mice were given the drug orally, except the dose needed to give the same sedative activity was higher (400-600 mg/kg, oral). This sedative effect of the drug lasted from 30 min. at 250 mg/kg to approximately 1.5 hr at 400 mg/kg. At the higher dose, the mice went to sleep.

[11] = mouse, in vivo
[12] = mouse, in vivo, cited from earlier work
[13] = therapeutically recommended doses for extended periods of time; cited from earlier work
[14] = man; cited from earlier work
cytochrome P-450 = conditions: cited from earlier work
[15] = chronic use; cited from earlier work
[16] = vitamin E deficient rats; cited from earlier work
[17] = 500 mg/kg i.p. in propylene glycol

In the case of `CC1NC(C(=O)O)CS1` (centres unmarked) [2-methylthiazolidine-4-carboxylic acid], the protection against hepatotoxins ([1]; forms cysteine in the liver) is given as “can also protect against heptotoxins”.
In the case of `COc1ccc(O)c(C(C)(C)C)c1` [BHA, butylated hydroxyanisole], the “effect on acetaminophen hepatotoxicity” value [2] is reported as “profoundly enhance its hepatotoxicity”.
With `Cc1cc(C(C)(C)C)c(O)c(C(C)(C)C)c1` [BHT, butylated hydroxytoluene] the “effect on acetaminophen hepatotoxicity” value [2] was “profoundly enhance its hepatotoxicity”.
For `C[S+](C)[O-]` [DMSO, Dimethyl sulfoxide], the “protection against hepatotoxic effects of acetaminophen” value [3] is given as “protect mice against the hepatotoxic effects of acetaminophen” and the “protection against CCl4 hepatotoxicity” value [4] is given as “inability of DMSO to protect mice against CCl4 hepatotoxicity”.
In the case of `CC(=O)N[C@@H](CS)C(=O)O` [N-acetylcysteine], the prevention of hepatotoxicity [5] is given as “effective in preventing hepatotoxicity”.
In the case of `CCN(C(C)=O)c1ccc(O)cc1` [N-ethyl-4'-hydroxyacetanilide], the “average time before licking a back paw” value [6] is reported as 64 s, the “increase in pain-response time” value ([6]; vs untreated control, 54° C.) is reported as ~50% and the “duration of sedative effects” value [17] is reported as “about one-half”. For the same compound, the sedative effects [17] was “sedative effects”, the “time to ataxia of the hind legs” value [17] was “about 15 minutes” and the time to drowsiness [17] was “about 25 minutes”. The duration of sleep (600 mg/kg oral, aqueous vehicle, pH 12) was 25 to 40 min, the antipyretic activity [7] was “no antipyretic activity” and the analgesic properties [8] was “no analgesic properties”.
With `CC(=O)N(c1ccc(O)cc1)C(C)C` [N-isopropylacetaminophen, N-isopropyl-4'-hydroxyacetanilide] the “average time before licking a back paw” value [6] was 64 s, the “increase in response time” value ([6]; vs untreated control, 54° C.) was 50% and the “histopathology of liver, kidney and lung” value [9] was “no organ showed any signs of injury”. The “duration of sedative effect” value ([10]; 250 mg/kg) was 30 min, the “duration of sedative effect” value ([10]; 400 mg/kg) was “approximately 1.5 hr” and the CNS sedation ([10]; 250-400 mg/kg i.p.) was “significant CNS sedation”. The “additional CNS effects after recovery from sedation” value ([10]; after recovery) was “no additional CNS effects were observed”, the sleep ([10]; higher dose) was “went to sleep” and the “dose giving significant CNS sedation in all mice” value ([10]; i.p.) was 250 to 400 mg/kg. The “dose needed to give the same sedative activity” value ([10]; oral) was 400 to 600 mg/kg.
For `CC(=O)Nc1ccc(O)cc1` [acetaminophen], the “fraction of the liver necrotic (estimated)” value [11] was ~60%, the liver histopathology [11] was “severe hepatic necrosis” and the immediate symptomatic effects (mouse, in vivo) was “No immediate symptomatic effects”. For the same compound, the “oral LD50” value ([12]; po) was “about 400 mg/kg”, the “hepatotoxicity at the oral LD50 dose” value [12] was “severe hepatotoxicity” and the “hepatotoxicity on chronic ingestion” value [13] was “massive hepatic necrosis”.
In the case of `O=C1O[C@H]([C@@H](O)CO)C(O)=C1O` [ascorbic acid], the “protective effect against paracetamol” value ([1]; nonsustained release form) is given as “no protective effect”, the “protective effect against paracetamol” value ([1]; sustained release form) is given as “substantial protective effect” and the “protection against acetaminophen hepatotoxicity” value ([1]; animal studies) is given as “may also provide such protection”. For the same compound, the “apparent half-life of acetaminophen” value [14] was “did not affect the apparent half-life” and the “excretion rate of acetaminophen sulfate” value [14] was “rapid and pronounced decrease”.
For `NCCS` [cysteamine], the “protection against acetaminophen hepatotoxicity” value ([1]; man and experimental animals) is given as “varying degrees of protection”.
In the case of `N[C@@H](CS)C(=O)O` [cysteine], the “protection against acetaminophen hepatotoxicity” value ([1]; man and experimental animals) is given as “varying degrees of protection”.
In the case of `CCO` [ethanol], the “induction of cytochrome P-450” value (cytochrome P-450) is listed as “demonstrated to induce cytochrome P-450” and the “effect on acetaminophen-mediated hepatotoxicity” value [15] is listed as “markedly increased”.
For `N[C@@H](CCC(=O)N[C@@H](CS)C(=O)NCC(=O)O)C(=O)O` [glutathione], the “protection against acetaminophen toxicity” value [1] is given as “afford protection against acetaminophen toxicity”.
For `CSCC[C@H](N)C(=O)O` [methionine], the “protection against acetaminophen hepatotoxicity” value ([1]; man and experimental animals) is listed as “varying degrees of protection”.
In the case of `CCC1(c2ccccc2)C(=O)NC(=O)NC1=O` [phenobarbital], the “induction of cytochrome P-450” value (cytochrome P-450) is given as “well-known cytochrome P-450 inducer”.
For `CC(CN1c2ccccc2Sc2ccccc21)N(C)C` (centres unmarked) [promethazine], the “protection against acetaminophen toxicity” value [1] is given as “afford protection against acetaminophen toxicity”.
In the case of `CCCOC(=O)c1cc(O)c(O)c(O)c1` [propyl gallate], the “effect on acetaminophen hepatotoxicity” value [1] is given as “reduce heptatotoxicity”.
For `Cc1c(C)c2c(c(C)c1O)CCC(C)(CCCC(C)CCCC(C)CCCC(C)C)O2` (stereo not drawn) [vitamin E, α-tocopherol], the “effect on acetaminophen hepatotoxicity” value [1] is given as “reduce heptatotoxicity”, the “protection against acetaminophen hepatotoxicity” value ([1]; man and experimental animals) is given as “varying degrees of protection” and the “protection against acetaminophen hepatotoxicity” value [16] is given as “protects vitamin E deficient rats”.
In the case of `CN(C)CCO` [β-dimethylaminoethanol], the “protection against acetaminophen toxicity” value [1] is given as “afford protection against acetaminophen toxicity”.
In the case of selenium, the “protection against acetaminophen hepatotoxicity” value ([1]; man and experimental animals) is listed as “varying degrees of protection”.
